The data set in a line: RP, Waters ACQUITY Premier BEH C18, 100 × 2.1 mm, 1.7 µm, 40 °C, 0.3 to 0.4 mL/min, estimated dead time 0.73 min; A: water + 0.1% formic acid; B: acetonitrile + 0.1% formic acid; gradient (min/%B) 0/0.5 0.1/0.5 10/80 10.1/99.5 12/0.5 12.1/0.5 14.5/0.5. To be noted: stereoisomer not certain.
In the case of `O=c1c(-c2ccc(O)cc2)coc2cc(O)cc(O)c12` [GENISTEIN], the LC retention time was 6.07 min. For `COc1c(O)cc2oc(-c3ccc(O)cc3)cc(=O)c2c1O` [5,7-DIHYDROXY-2-(4-HYDROXYPHENYL)-6-METHOXY-4H-CHROMEN-4-ONE] the value was 6.08 min. With `O=C(O)CCCCC1SCC2NC(=O)NC21` (configuration not stated) [BIOTIN], the LC retention time is 4.59 min. Turning to `Cc1cc2nc[nH]c2cc1C` [5,6 DIMETHYLBENZIMIDAZOLE], the LC retention time was 4.48 min. As for `O=C(O)CCCCCCCCCCCCCCC(=O)O` [HEXADECANEDIOIC ACID], the figure is 7.67 min.

As for `CNC(=O)c1cccnc1` [N-METHYLNICOTINAMIDE], the LC retention time was 1.05 min.

On to `O=C1CCNC(=O)N1` [DIHYDROURACIL], for which the LC retention time was 1.37 min. For `CC(=O)NC(CC(=O)O)C(=O)O` (configuration not stated) [N-ACETYLASPARTATE] the value was 1.41 min; for `NC(Cc1cc(I)c(Oc2ccc(O)c(I)c2)c(I)c1)C(=O)O` (configuration not stated) [LIOTHYRONINE], 6.23 min.

Consider `CC(=O)NCCCCN` [N-ACETYLPUTRESCINE], for which the LC retention time is 0.96 min.

As to `COc1cc(CC(COC2OC(CO)C(O)C(O)C2O)C(COC2OC(CO)C(O)C(O)C2O)Cc2ccc(O)c(OC)c2)ccc1O` (configuration not stated) [SECOISOLARICIRESINOL DIGLUCOSIDE], the LC retention time was 4.58 min. As for `O=c1cc(-c2ccccc2)oc2cc(O)cc(O)c12` [5,7-DIHYDROXYFLAVONE], the figure is 7.23 min. As for `O=C(O)CCCCCC(=O)O` [6-CARBOXYHEXANOATE], the figure is 4.46 min. As for `O=c1cc[nH]c(=O)[nH]1` [URACIL], the figure is 1.39 min; as for `COc1cc(C(=O)O)cc(OC)c1O` [SYRINGIC ACID], 3.98 min; as for `O=C(O)c1ccc(O)cc1O` [2,4-DIHYDROXYBENZOIC ACID], 4 min. With `CC(=O)NC(CCC(=O)O)C(=O)O` (configuration not stated) [N-ACETYLGLUTAMATE], the LC retention time was 2.2 min.

Regarding `CCCCCCCCCCCC=CCCCCC(=O)O` [PETROSELINATE], the LC retention time is 10 min. Regarding `Cc1ccc(C(C)C)c(O)c1` [THYMOL], the LC retention time is 5.78 min. For `O=C(O)CCCCCCCCCC(=O)O` [UNDECANEDIOIC ACID] the value was 6.09 min; for `O=C1CC(C(=O)O)NC(=O)N1` (configuration not stated) [4,5-DIHYDROOROTIC ACID], 1.12 min; for `O=C(O)CCCc1c[nH]c2ccccc12` [3-INDOLEBUTYRIC ACID], 6.25 min. For `CC(=O)NCCc1c[nH]c2ccc(O)cc12` [N-ACETYLSEROTONIN] the value was 4.42 min; for `CC(=O)NC(CS)C(=O)O` (configuration not stated) [N-ACETYLCYSTEINE], 4 min; for `CC1CCC2(C(=O)O)CCC3(C)C(=CCC4C5(C)CC(O)C(O)C(C)(CO)C5C(O)CC43C)C2C1C` (stereo not drawn) [6BETA-HYDROXYASIATIC ACID], 7.04 min. For `Nc1nc2c(ncn2C2OC(COP(=O)(O)OP(=O)(O)OC3OC(CO)C(O)C(O)C3O)C(O)C2O)c(=O)[nH]1` (configuration not stated) [GUANOSINE DIPHOSPHATE MANNOSE] the value was 1.37 min; for `O=C(O)C1OC(Oc2cc3oc(-c4ccccc4)cc(=O)c3c(O)c2O)C(O)C(O)C1O` (configuration not stated) [BAICALIN], 5.17 min. For `Cc1cc2nc3[nH]c(=O)[nH]c(=O)c3nc2cc1C` [LUMICHROME], the LC retention time is 5.49 min. As for `CC(=O)NCCc1cnc[nH]1` [N-ACETYLHISTAMINE], the figure is 0.998 min; as for `Cn1cnc2[nH]c(=O)[nH]c(=O)c21` [7-METHYLXANTHINE], 1.2 min; as for `O=c1ccc2ccc3occc3c2o1` [ANGELICIN], 6.41 min. As for `Nc1cc(O)cc(C(=O)O)c1` [3-AMINO-5-HYDROXYBENZOATE], the figure is 1.49 min. As for `NC(=O)c1ccc[n+](C2OC(COP(=O)([O-])O)C(O)C2O)c1` (configuration not stated) [NICOTINAMIDE MONONUCLEOTIDE], the figure is 0.959 min. As to `Cc1ccc(O)c(O)c1` [4-METHYLCATECHOL], the LC retention time was 4.34 min.

With `CCNC(=O)C1CC(C)CCC1C(C)C` (configuration not stated) [N-ETHYL-5-METHYL-2-(1-METHYLETHYL)-CYCLOHEXANECARBOXAMIDE], the LC retention time is 7.41 min.

As for `N[C@@H](Cc1ccc(O)c([N+](=O)[O-])c1)C(=O)O` [3-NITRO-L-TYROSINE], the LC retention time was 3.8 min. With `CCCCC(CC)COC(=O)c1ccccc1C(=O)OCC(CC)CCCC` (configuration not stated) [BIS(2-ETHYLHEXYL)PHTHALATE], the LC retention time is 10.7 min. For `COc1ccc2[nH]cc(CCNC(C)=O)c2c1` [MELATONIN] the value was 5.57 min; for `N[C@@H](Cc1ccc(O)c(O)c1)C(=O)O` [L-DOPA], 1.7 min; for `NC(=O)CCCCC1CCSS1` (configuration not stated) [LIPOAMIDE], 5.5 min. For `Cn1c(=O)[nH]c2ncn(C)c2c1=O` [PARAXANTHINE] the value was 3.95 min; for `CC(C)C(=O)O` [ISOBUTYRATE], 3.67 min.

For the molecule `CCCCC(=O)C(=O)O` [2-KETOHEXANOIC ACID], the LC retention time is 4.8 min.

Turning to `CCCCCCCCCCCC(O)CC(=O)O` (configuration not stated) [3-HYDROXYTETRADECANOIC ACID], the LC retention time was 8.11 min.

With `CC(=O)N1CCCC1C(=O)O` (configuration not stated) [N-ACETYLPROLINE], the LC retention time was 3.77 min.

`O=C(O)c1cccc(O)c1O` [2,3-DIHYDROXYBENZOATE]: the LC retention time was 4.71 min.

For the molecule `O=C(O)CCCCCCCCCCCNC(=O)NC1CCCCC1` [CUDA], the LC retention time is 7.47 min. For `O=c1cc(-c2ccccc2)oc2ccccc12` [FLAVONE] the value was 7.23 min. Take `CC(C)(N)C(=O)O` [2-AMINOISOBUTYRATE]: the LC retention time was 0.886 min. As for `NC(=O)c1ccc[n+](C2OC(COP(=O)(O)OP(=O)(O)OCC3OC(n4cnc5c(=O)[nH]cnc54)C(O)C3O)C(O)C2O)c1` (configuration not stated) [NICOTINAMIDE HYPOXANTHINE DINUCLEOTIDE], the figure is 2.02 min; as for `COc1ccc(-c2cc(=O)c3c(O)cc(O)cc3o2)cc1O` [DIOSMETIN], 6.12 min. For `O=C([O-])C(O)Cc1ccc(O)c(O)c1.[Na+]` (configuration not stated) [3-(3,4-DIHYDROXYPHENYL)LACTIC ACID] the value was 3.74 min; for `O=c1[nH]c(=O)c2[nH]c(=O)[nH]c2[nH]1` [URATE], 1.52 min; for `CCCCCCC=CCCCCCCCC(=O)O` [PALMITOLEIC ACID], 8.15 min.

On to `NC1CCSC1=O` (configuration not stated) [HOMOCYSTEINE THIOLACTONE], for which the LC retention time is 0.939 min.

`Cc1cn(C2OC(CO)C(O)C2O)c(=O)nc1N` (configuration not stated) [5-METHYLCYTIDINE]: the LC retention time is 2.36 min.

With `O=C(C=Cc1ccc(O)c(O)c1)OC1C(O)CC(O)(C(=O)O)CC1O` (configuration not stated) [CRYPTOCHLOROGENIC ACID], the LC retention time is 3.67 min. For `CC(=O)NC(C)C(=O)O` (configuration not stated) [N-ACETYLALANINE] the value was 2.4 min.

In the case of `O=Cc1ccc(O)c(O)c1` [3,4-DIHYDROXYBENZALDEHYDE], the LC retention time was 3.49 min. As for `C=C(CC(=O)O)C(=O)O` [ITACONATE], the figure is 3.67 min; as for `O=C(O)CC(CC(=O)O)C(=O)O` [1,2,3-PROPANETRICARBOXYLIC ACID], 2.39 min. As for `CCCCCCCCCCCCCCCC(O)C(N)CO` (configuration not stated) [SPHINGANINE], the figure is 7.51 min; as for `Cc1ncc(CO)c(C(=O)O)c1O` [4-PYRIDOXATE], 3.4 min. As for `CC(CCC(=O)NCCS(=O)(=O)O)C1CCC2C3C(O)CC4CC(O)CCC4(C)C3CC(O)C12C` (configuration not stated) [TAUROCHOLIC ACID], the figure is 5.85 min. As to `CC(C)c1cc2c(c(O)c1O)C1(C(=O)O)CCCC(C)(C)C1CC2` (configuration not stated) [CARNOSIC ACID], the LC retention time was 8.06 min.

`CCC=CCC1C(=O)CCC1CC(=O)OC` (configuration not stated) [METHYL JASMONATE]: the LC retention time was 7.43 min. For `C=CC(C)(O)CCC1C(C)(O)CCC2C(C)(C)CCCC21C` (configuration not stated) [SCLAREOL] the value was 8.18 min. For `O=c1c(O)c(-c2ccccc2)oc2cc(O)cc(O)c12` [NORIZALPININ], the LC retention time is 7.12 min. For `CC(C)CC(=O)C(=O)O` [KETOLEUCINE] the value was 4.02 min.

Regarding `NC(N)=S` [THIOUREA], the LC retention time was 0.942 min. For `C=C1C(=O)OC2C=C(C)CCC=C(C)CCC12` (configuration not stated) [COSTUNOLIDE] the value was 7.65 min; for `Nc1ncnc2c1ncn2C1CC(O)C(CO)O1` (configuration not stated) [DEOXYADENOSINE], 3.33 min; for `CC(CCC(=O)O)C(=O)O` (configuration not stated) [2-METHYLGLUTARATE], 4.07 min. For `CC1(C(=O)O)CCC2(C)CCC3(C)C(=CC(=O)C4C5(C)CCC(OC6OC(C(=O)O)C(O)C(O)C6OC6OC(C(=O)O)C(O)C(O)C6O)C(C)(C)C5CCC43C)C2C1` (configuration not stated) [GLYCYRRHIZIN] the value was 6.4 min; for `CCC(C(=O)O)C(=O)O` [ETHYLMALONATE], 3.85 min. For `O=c1ccn(C2CC(O)C(COP(=O)(O)O)O2)c(=O)[nH]1` (configuration not stated) [DEOXYURIDINE-MONOPHOSPHATE] the value was 1.7 min; for `Cn1cc(C(N)=O)ccc1=O` [N1-METHYL-2-PYRIDONE-5-CARBOXAMIDE], 1.12 min. With `CC(C)C(N)C(=O)O` (configuration not stated) [VALINE], the LC retention time was 1.21 min. As for `O=C1c2c(O)cc(O)cc2OCC1c1ccc(O)cc1` (configuration not stated) [DIHYDROGENISTEIN], the figure is 5.97 min; as for `CC(=O)NC(CO)C(=O)O` (configuration not stated) [N-ACETYLSERINE], 1.12 min; as for `CCCCCCCCCCCCCCCCCC(=O)O` [STEARATE], 11 min.

On to `Cc1cc2nc3c(=O)[nH]c(=O)nc-3n(CC(O)C(O)C(O)COP(=O)(O)O)c2cc1C` (configuration not stated) [FLAVIN MONONUCLEOTIDE], for which the LC retention time was 3.73 min.

The values above are taken from the RepoRT retention time repository.
